Measured values published in article PMC12040169 (PLOS Biology, 2025).

assay: in vitro; settings: human, hela cells, % viability

| SMILES | viability at 28.5 h, 10 µM [%] |
| --- | --- |
| O=C(CSCc1ccc(Cl)cc1Cl)Nc1nccs1 [CBK131921] | 103 |
| Cc1cc(-c2nn3c(-c4ccccc4)nnc3s2)c2ccccc2n1 [CBK267187] | 101 |
| CCOc1ccc2cc(C3CC(c4ccc(C)cc4)=NN3C(=O)CCC(=O)O)c(Cl)nc2c1 (stereo not shown) [CBK297508] | 87.2 |
| CC(=O)NCCc1nc2ccccc2n1CCOc1ccc(Cl)cc1 [CBK269610] | 107 |
| O=C(Nc1ccc(I)cc1C(=O)NCCN1CCOCC1)c1ccco1 [CBK266211] | 100 |
| COc1ccc(CN2CCC(N3CCc4ccccc4C3)CC2)cc1OCc1ccccc1 [CBK264629G] | 91.4 |
| CCn1c(SCC(=O)Nc2nc(C)c(C(=O)OC)s2)nc2c1c(=O)n(C)c(=O)n2C [CBK127470] | 101 |
| C/C=C/c1ccc(OCCNC2CCCC2)c(OC)c1 [CBK266399G] | 93.9 |
| CN1CCN(CCCCn2nc3n(c2=O)-c2ccccc2OC3(C)C)CC1 [CBK023953C] | 95.8 |
| Cc1nc(N2CCOCC2)cc(N2CCN(C(=O)C3CCCC3)CC2)n1 [CBK307602] | 87.5 |
| O=C(O)CCc1ccc(-c2cccs2)n1-c1ccc(C(=O)O)cc1 [CBK266016] | 90.9 |
| CC(NC(=O)c1cc(-c2ccccc2)nc2ccccc12)c1cccc(S(N)(=O)=O)c1 (stereo not shown) [CBK298285] | 79.5 |
| O=C(NCc1ccncc1)c1nccnc1-c1ccc(COc2ccccc2)cc1 [CBK050836] | 88.1 |
| O=S(=O)(c1ccc(C(F)(F)F)cc1)N1CCC2(CC1)OCCO2 [CBK044520] | 91.1 |
| COc1cc2c(c(OC)c1OC)C(c1ccccc1C)CC(=O)N2 (stereo not shown) [CBK288205] | 109 |
| Cc1onc(-c2ccccc2)c1CNC(=O)CC1CCCCC1 [CBK144078] | 89.1 |
| O=S(=O)(Nc1ncc(Br)c2cccnc12)c1ccc(Cl)c(Cl)c1 [CBK073888] | 89.5 |
| O=C(c1cc2ccccc2[nH]1)N1CCN(Cc2ccccc2)CC1 [CBK200172] | 118 |
| CCn1cc(C(=O)N2CCN(Cc3ccco3)C[C@@H]2C(C)C)c(C)n1 [CBK285488] | 110 |
| COc1ccc(C(=O)C2CCN(Cc3cccc4cccnc34)CC2)cc1 [CBK295192] | 85.3 |
| O=C(Nc1ccc2cc[nH]c2c1)c1cccnc1 [CBK160053] | 97.9 |
| O=C(C1CC1)N1CCC(c2nc(Cc3cccs3)no2)C1 (stereo not shown) [CBK282980] | 89.6 |

| SMILES | viability at 28.5 h, 10 µM [%] |
| --- | --- |
| O=C(c1ccc(NCCCCO)nc1)N1CCC(N2CCOCC2)CC1 [CBK306521] | 96 |
| CCOC(=O)c1ccc(NC(=O)N2CCC3(CC2)NC(=O)Cc2ccccc23)cc1 [CBK047362] | 107 |
| O=S(=O)(Nc1cccc(Br)c1)c1ccc(OC(F)(F)F)cc1 [CBK044369] | 114 |
| O=C1OC(c2ccco2)=N/C1=C/c1ccccc1OC(=O)c1ccco1 [CBK263980] | 103 |
| CC(Oc1cccc(C#N)c1)C(=O)NCC1(N2CCOCC2)CCSC1 (stereo not shown) [CBK305780] | 94.8 |
| O=C(O)CCC(=O)Nc1ccc(-c2ccc([N+](=O)[O-])cc2)cc1 [CBK261637] | 105 |
| O=C(Nc1ccncc1)c1ccc(CNS(=O)(=O)c2cccc(C(F)(F)F)c2)cc1 [CBK267181] | 88.5 |
| O=C(Nc1ccc(O)cc1)c1ccc2c(c1)C(=O)N(c1cccc(N3C(=O)c4ccc(C(=O)Nc5ccc(O)cc5)cc4C3=O)n1)C2=O [CBK261334] | 102 |
| O=C(NCCc1ccccc1)c1ncoc1-c1cccs1 [CBK283662] | 91.8 |
| CS(=O)(=O)N(CC(=O)Nc1ccc(S(=O)(=O)N2CCCCCC2)cc1)c1ccccc1F [CBK266829] | 92.9 |
| Cc1cc(C)n(Cc2cc(C(=O)NCC(C)Oc3cccnc3)n[nH]2)n1 (stereo not shown) [CBK307609] | 85.9 |
| CN1CCN(S(=O)(=O)c2cccc(C(F)(F)F)c2)CC1 [CBK062425] | 103 |
| COc1ccc(C2=NNC(c3ccc(C(=O)O)cc3)C2)cc1 (stereo not shown) [CBK287167] | 78 |
| CS(=O)(=O)Nc1cccc2cc[nH]c12 [CBK159509] | 110 |
| O=C1NC2(CCc3ccccc31)CCN(C(=O)c1ccccn1)C2 (stereo not shown) [CBK283337] | 96 |
| CCc1nc2c(OCC(=O)N3CCOCC3)cccn2c1N(C)C(=O)c1ccco1 [CBK147436] | 92 |
| O=S(=O)(c1c(F)cccc1F)N1CCN(Cc2ccc3c(c2)OCO3)CC1 [CBK074600] | 91.5 |
| COc1ccc2cc(Cn3nc(C(=O)O)c4ccccc4c3=O)c(Cl)nc2c1 [CBK295354] | 88 |
| CCOC(=O)C1CCCN(S(=O)(=O)c2sc3ccc(Cl)cc3c2C)C1 (stereo not shown) [CBK154797] | 97.2 |
| O=C1CC2(CCN(C(=O)c3ccncc3)CC2)Oc2c(Br)cc(Br)cc21 [CBK156437] | 95.7 |
| O=C(c1ccccc1F)N1CC2CCCC(C1)C2N1CCOCC1 (stereo not shown) [CBK285262] | 79.9 |
| CCOC(=O)c1c(NC(=O)CSc2nnnn2C)sc2c1CCCC2 [CBK007332] | 103 |

| SMILES | viability at 28.5 h, 10 µM [%] |
| --- | --- |
| Cc1noc(C)c1S(=O)(=O)NC1CCN(Cc2ccccc2)CC1 [CBK062028] | 83.4 |
| O=C(NCc1c(F)cccc1F)c1ccc(-c2ccc(OC(F)(F)F)cc2)nc1 [CBK161007T] | 97.6 |
| Cc1ccc(-c2csc3ncnc(NCCCc4n[nH]c(N)c4C#N)c23)cc1 [CBK297100] | 98.1 |
| Cc1nn(C(C)C)c(C)c1CN(CCCN(C)C)Cc1ccco1 [CBK282978] | 86.8 |
| Cn1c(=O)c2c(ncn2CC(=O)Nc2ccc(OCc3ccccc3)cc2)n(C)c1=O [CBK130478] | 89.8 |
| Cc1cccc(NC(=O)[C@@H](NC(=O)c2ccccc2F)C(C)C)c1C [CBK297509] | 85.4 |
| CCOc1ccccc1N1CCN(C(C(=O)O)c2c[nH]c3ccc(CO)cc23)CC1 (stereo not shown) [CBK286816] | 90.1 |
| O=C1NCC2(C/C=C/CCOc3ccccc31)CCN(C(=O)c1ccncc1)CC2 [CBK292018] | 105 |
| Cc1cc2c(s1)c1cnn(CC(=O)N3CCCCC3)c(=O)c1n2C [CBK284187] | 82.3 |
| Cc1ccc(OCCSc2nnc3[nH]c4ccccc4n23)cc1 [CBK267922] | 96.2 |
| CC(C)NC(=O)N1CC[C@H](c2nc3ncccc3[nH]2)C1 [CBK289369] | 101 |
| CSCCC(C(=O)O)N1C(=O)C(=Cc2ccc(-c3cc(Cl)cc(Cl)c3)o2)SC1=S (stereo not shown) [CBK296984] | 87.3 |
| O=c1c2c([nH]c3nc(NCc4ccc(OCc5ccccc5)cc4)nn13)CCC2 [CBK268044] | 96.9 |
| CCn1c(COc2ccc(C(=O)O)cc2)nc2ccccc21 [CBK267647] | 91.7 |
| CC(=O)Nc1cccc(-c2nc(-c3ccc(C#N)cc3)cnc2N)c1 [CBK113659] | 100 |
| FC(F)(F)c1nc2ccccc2nc1OCCCc1ccncc1 [CBK115804] | 85.1 |
| Cc1n[nH]c(C)c1CC(=O)NC(Cc1cccs1)c1ccccn1 (stereo not shown) [CBK285208] | 111 |
| Cc1cc(CN(C)Cc2c(-c3ccccc3)nn(C)c2C)n[nH]1 [CBK281707] | 88.8 |
| CN(Cc1ccc2c(c1)OCCO2)C(=O)CSc1n[nH]c(=O)n1Cc1ccccc1 [CBK297876] | 82.1 |
| COc1ccccc1-c1nnc(SCc2ccc(C(=O)O)cc2)[nH]1 [CBK266631] | 99.5 |
| OCCSc1ccc(C(F)(F)F)cn1 [CBK028739] | 115 |
| O=C(C1CCC1)N1CCC2(CC1)Nc1cccnc1-n1cccc12 [CBK284505] | 92.5 |

| SMILES | viability at 28.5 h, 10 µM [%] |
| --- | --- |
| CC(CC(=O)N1CCC(Oc2ccccc2F)CC1)n1cccn1 (stereo not shown) [CBK282118] | 84.6 |
| CC(C)N(Cc1cnn(C)c1)C(=O)c1cc(C2CC2)nc2ccccc12 [CBK305325] | 103 |
| CCN(CC)CC(c1ccccc1)C(O)c1ccc(OC)cc1 (stereo not shown) [CBK262074C] | 88.8 |
| NC(=O)CSc1nnc(NC(=O)c2ccccc2)s1 [CBK287628] | 92.8 |
| CC(C)N(C)C(=O)Cc1csc(N)n1 [CBK014608] | 100 |
| Cc1cc(Cl)c(OCCN2CCC(C)CC2)c(Br)c1 [CBK265088G] | 78.3 |
| COc1ccc(CN(Cc2cccs2)[C@@H]2COC[C@H]2c2ccc(F)cc2)cc1 [CBK286487] | 90.6 |
| Cc1nc(NC(=O)CCN2C(=O)COc3ccccc32)sc1-c1n[nH]c(=S)n1C [CBK295362] | 98.5 |
| O=C(Nc1ccccc1)c1ccccc1OCc1ccc(S(=O)(=O)N2CCOCC2)cc1 [CBK267396] | 92.8 |
| O=C1CC(N2CCN(Cc3ccc4c(c3)OCO4)CC2)C(=O)N1c1cc(Cl)cc(Cl)c1 (stereo not shown) [CBK074554] | 94.5 |
| Nc1nccn(CCOc2cc(F)c(F)cc2F)c1=O [CBK138204T] | 92.6 |
| CCCC/C=C/c1cnc(N)c(-c2ccc(CCC(=O)O)cc2)n1 [CBK064127] | 95.5 |
| O=C1CCC(=O)N1CCOc1nccnc1N1CCNCC1 [CBK074030T] | 97.6 |
| N#C/C(=C\c1ccc(-c2ccc(C(=O)O)c(O)c2)o1)c1nc2ccccc2[nH]1 [CBK262121] | 91.7 |
| Cc1nc(C)c(S(=O)(=O)Nc2ccccc2-c2nnnn2C(C)C)s1 [CBK305508] | 96.3 |
| CS(=O)(=O)c1ccc(CN2CCC3(CCN(Cc4ccccc4)CC3)C2)cc1 [CBK144066T] | 92.2 |
| COc1ccc([N+](=O)[O-])cc1NC(=O)C1(c2ccc(OC)c(OC)c2)CCOCC1 [CBK266243] | 98.2 |
| COCOc1ccc(-c2ncc(OCCN3CCOCC3)nc2N)cc1 [CBK145100] | 87.7 |
| Cc1ccc(OCc2occc2C(=O)N2CCc3[nH]cnc3C2)cc1 [CBK307717] | 85.6 |
| CCCn1ccnc1SCC(=O)Nc1ccc(CN2CCOCC2)cc1 [CBK306068] | 87.8 |

same assay, conditions: human, hela cells, % viability, bulk resorufin, single well

| SMILES | viability at 28.5 h, 10 µM [%] |
| --- | --- |
| O=[N+]([O-])c1ccc2c(c1)COC1(CCNCC1)O2 [CBK116644] | 83.7 |
| COc1cc(Cl)ccc1NC(=O)Oc1cccc2cnccc12 [CBK012882] | 79.9 |
